Test results taken from patent publication US5635525A, “Benzimidazole derivatives as angiotensin II receptor antagonists, pharmacticals, and treatment of hypertension therewith” (Hoechst Aktiengesellschaft, priority 1991, dated 1997).

Target: angiotensin II receptor
Assay: displacement of 125I- or 3H-angiotensin II from receptor preparations from various organs (liver, lung, adrenal gland, brain etc.)
Conditions: "according to the abovementioned process"; which of the two binding methods is not stated
Description: Bound and free radioligand are then separated by filtration through micro glass fiber filters (GF51, Schleicher & Schull) on a cell collector (SKATRON).
By measurement of the receptor-bund radioactivity on the filters by means of a beta spectrometer or gamma spectrometer, the degree of displacement of the radioligand from the receptor by the test compounds is determined.

| Compound | IC50 [nM] |
| --- | --- |
| 2-n-Butyl-3-[(2'-allylaminocarbonylaminosulfonylbiphenyl-4-yl)-methyl]-3H-imidazo-[4,5-b]/[5,4-b]pyridine [Example 27] | 1.1 |
| CCCCc1nc2cccc(C(=O)O)c2n1Cc1ccc2c(Cl)c(C(=O)O)sc2c1 [Example 1, 2-n-Butyl-1-[(2-carboxy-3-chlorobenzo[b]thiophen-6-yl)-methyl]-1H-benzimidazole-7-carboxylic acid] | 78 |
| CCCCc1nc2cccc(C(=O)O)c2n1Cc1ccn2c(C(=O)O)c(-c3ccccc3)nc2c1 [Example 2, 2-n-Butyl-1-[(3-carboxy-2-phenylimidazo[1,2-a]pyridin-7-yl)methyl]-1H-benzimidazole-7-carboxylic acid] | 65 |
| CCCCc1nc2cccc(C(=O)O)c2n1Cc1ccn2c(C(=O)O)c(-c3ccccc3)nc2n1 [Example 3, 2-n-Butyl-1-[(3-carboxy-2-phenylimidazo[1,2-a]pyrimidin-7-yl)methyl]-1H-benzimidazole-7-carboxylic acid] | 149 |
| C=CCOC(=O)N(C(=O)OCC=C)S(=O)(=O)c1ccccc1-c1ccc(Cn2c(CC)nc3c(C)cc(C)nc32)cc1 [Example 15] | 0.8 |
| CCCCc1nc2cccc(C(=O)O)c2n1Cc1ccc(-c2ccccc2S(=O)(=O)NC(=O)OCC)cc1 [Example 19, 2-n-Butyl-1-[(2'-ethoxycarbonylaminosulfonylbiphenyl-4-yl)methyl]-1H-benzimidazole-7-carboxylic acid] | 0.74 |
| CCNC(=O)NS(=O)(=O)c1ccccc1-c1ccc(Cn2c(CC)nc3c(C)ccnc32)cc1 [Example 31, 2-Ethyl-3-[(2'-ethylaminocarbonylaminosulfonylbiphenyl-4-yl)methyl]-7-methyl-imidazo[4,5-b]pyridine] | 0.48 |
| CCCNC(=O)NS(=O)(=O)c1ccccc1-c1ccc(Cn2c(CC)nc3c(C)cc(C)nc32)cc1 [Example 51] | 1.8 |
